Laboratory results published in patent US20220288004A1, “TREATMENT AND PREVENTION OF AGING RELATED-DISEASE AND/OR AGING BY THE INHIBITION OF SPHINGOLIPIDS” (ECOLE POLYTECHNIQUE FEDERALE DE LAUSANNE (EPFL), priority 2019, published 2022).
Entries after “also recorded” stand apart in the source; their conditions may differ.

How the values were obtained:
Format in all cases: in vivo, mouse
[1] = test system: muscle stem cells (MuSCs); test: MuSC count in muscle of treated aged mice (FACS, PAX7 immunostaining)
Excerpt: Muscle stem cells (MuSCs) are capable of giving rise to mature muscle fibers, and their regenerative capacity has been reported to be impaired upon aging. […] Consistent with this, PAX7 expression correlated negatively with the first PC of the ceramide synthetic pathway in both human (FIG. 3e) and mouse (FIG. 3f) skeletal muscle. To study whether increased Pax7 transcript abundance in skeletal muscle reflects elevated MuSC count, a7 integrin/CD34 double positive cells were isolated from the hind-limbs using fluorescence-activated cell sorting (FACS).
Stem cell isolation. Gastrocnemius, soleus, and quadriceps muscles from both hindlimbs were excised and transferred into PBS on ice. […] Stained cells were analyzed and sorted using the FACSAria II instrument (BD Biosciences). […]
Histology. […] Microscopy images of fluorescence from muscle fibers were analyzed using the ImageJ software. Centralized nuclei percent, minimal Feret diameter and cross-sectional area in TA muscles were determined using the ImageJ software quantification of laminin, dystrophin, and DAPI-stained muscle images from VS120-S6-W slides scanner (Olympus). […] The mean cross-sectional area of muscle fibers was calculated as the average cross-sectional area of 2,000 fibers per from sample. 7-8 mouse samples per condition were used for histological quantification of donor mice. […] For each quantification, 3 or more mice were used.

[2] = test system: aged C57Bl/6JRj mice; test: Body composition, muscle mass and TA muscle histology in aged mice
Method: To examine whether a causal relationship could underlie the correlation between SphPC1 and muscle mass and function, it was tested whether inhibition of sphingolipid de novo biosynthesis pathway could protect against age-related muscle dysfunction. Aged (18-month-old) C57Bl/6JRj mice were treated for 5 months on chow diet with myriocin, a specific inhibitor of SPT, the first and rate-limiting enzyme of the sphingolipid de novo synthesis pathway, and whose expression in skeletal muscle was negatively correlated with muscular fitness in BXDs.
Animals. Young (2-month-old) and aged (18-month-old) C57Bl/6JRj mice were purchased from Janvier Labs. EchoMRI measuring the fat and lean body mass, were measured before and after the treatment. The dose of myriocin was 0.4 mg/kg/3 times a week. Myriocin (Enzo Life Sciences, Farmingdale, N.Y.) was first dissolved in DMSO which was then mixed with PBS so that each mouse received 1.5 μL DMSO per injection. Animals were fed on a standard chow diet. All animals were housed in micro-isolator cages in a room illuminated from 7:00 AM to 7:00 PM with ad libitum access to diet and water. All the animal experiments are authorized by animal license 2890.1 and 3341 in Canton of Vaud, Switzerland.
Histology. TA muscles were harvested from anesthetized mice, and immediately embedded in Thermo Scientific™ Shandon™ Cryomatrix™ and frozen in isopentane, cooled in liquid nitrogen, for 1 min before being transferred to dry ice and stored at −80° C. 8 μm cryosections were incubated in 4% PFA for 15 min, washed three times for 10 min with PBS, incubated for antigen retrieval in pH 6.0 citrate buffer for 10 min at 95° C. […] Microscopy images of fluorescence from muscle fibers were analyzed using the ImageJ software. Centralized nuclei percent, minimal Feret diameter and cross-sectional area in TA muscles were determined using the ImageJ software quantification of laminin, dystrophin, and DAPI-stained muscle images from VS120-S6-W slides scanner (Olympus). […] The mean cross-sectional area of muscle fibers was calculated as the average cross-sectional area of 2,000 fibers per from sample. 7-8 mouse samples per condition were used for histological quantification of donor mice. The eMyHC quantification is expressed as proportion of eMyHC positive signal over total TA cross sectional area. Following MuSC injection in CTX injected recipient mice, inflammation representing the regenerative stage of muscle was quantified by ImageJ software as proportion of inflammatory area over total area of the TA muscle cross section. The PAX7-positive cells were quantified as the average number of cells per field of more than 30 randomly chosen fields from a mouse TA. For each quantification, 3 or more mice were used.

[3] = test system: quadriceps muscle of aged C57Bl/6JRj mice; test: Quadriceps transcript profiling using RNA sequencing; settings: aged myriocin vs DMSO treated mice
Method: To identify biological pathways whose modulation could explain improved muscle function upon myriocin treatment, transcriptomes of quadriceps muscle of aged myriocin and DMSO treated mice using RNA sequencing were compared. Gene set enrichment analysis (GSEA) ranking transcripts based on their fold change were performed.
Quadriceps transcript profiling using RNA sequencing. Quadriceps muscles were collected and snap-frozen in liquid nitrogen from C57Bl/6JRj mice undergoing intraperitoneal myriocin treatment for 10 weeks on a chow diet starting at the age of 18 months. RNA was isolated using Direct-zol RNA kit (Zymo, Irvine, Calif.). RNA quality was assessed using Agilent 2100 BioAnalyzer (Agilent, Santa Clara, Calif.). Samples with RIN≥8, 28S/18S≥1.0, and c≥20 ng/μL were included in analyses. […] Sequencing libraries were prepared by BGI genomics using the DNBsea™ technology. Paired end sequencing with 100 cycles was performed using the BGISEQ-500 instrument. After removal of adaptor sequences and low quality reads, at least 56 million reads per sample was obtained. SOAPnuke was used to obtain clean reads (parameters -l 15, -q 0.2, -n 0.05). Reads were mapped using STAR aligner version 2.5.2b using the mouse GRCm38 genome assembly and the release 91 GTF annotation from Ensembl. Htseq-count version 0.6.0 was used to count the number of reads mapping to genes (mode=union, type=exon, idattr=gene_id). Transcript displaying higher expression than log 2(CPM+1)>0.5 in at least 3 samples were included in analyses. Differential gene expression analysis and expression normalization was performed using voom, ‘variance modeling at the observational level’, adjusting for sacrifice date. At individual gene level, no gene passed the multiple testing correction threshold. Benjamini-Hochberg correction for multiple testing was used. For gene set enrichment analysis using gene ontology (GO) categories, transcripts were ordered according to their log 2-transformed fold change, and 100,000 permutations were used. Adjusted p-value<0.05 was considered significant.

## CCCCCCC(=O)CCCCCCC=CCC(O)C(O)C(N)(CO)C(=O)O (stereo not shown) [myriocin, 2-Amino-3,4-dihydroxy-2-(hydroxymethyl)-14-oxoicos-6-enoic acid]
[1]; aged myriocin treated mice
  number of PAX7+ muscle cells in TA tissue sections: elevated number
[1]; young, aged, and aged myriocin treated mice
  number of MuSCs in hindlimbs (a7 integrin/CD34 double positive cells, FACS): restored the MuSC pool of aged mice close to that of young mice
[2]; myriocin 0.4 mg/kg i.p. 3 times per week, 5 months, EchoMRI before and after treatment
  lean body mass: delayed age-dependent decline; also recorded: higher
[2]; myriocin 5 months vs DMSO
  cross-sectional area of muscle fibers (TA): larger
  number of centralized nuclei in TA muscle: reduced number
[2]; myriocin 5 months vs DMSO treated controls
  gastrocnemius and TA mass: greater; also recorded: higher
[3]
  expression of Pax7 in quadriceps muscle: upregulated
[3]; quadriceps RNA-seq
  most downregulated pathways (gene set enrichment analysis): lipid metabolism and inflammation
  upregulated pathways (gene set enrichment analysis): muscle contraction and differentiation
[3]; quadriceps
  Myog and Myf5 transcripts in skeletal muscle: upregulated
